Our source for the Ki values is patent publication US6399614B1, “1-(N-phenylaminoalkyl)piperazine derivatives substituted at position 2 of the phenyl ring” (Recordati S.A. Chemical and Pharmaceutical Company, priority 1997, dated 2002).

The term Ki denotes a measure of affinity in units of concentration, obtained from inhibition or displacement.

The experiment has as its target T1, human 5-HT1A serotonergic receptor (Homo sapiens, UniProt P08908).
T1 construct: expressed in transfected cells; host or cells: HeLa
T1 sequence (P08908 1-422): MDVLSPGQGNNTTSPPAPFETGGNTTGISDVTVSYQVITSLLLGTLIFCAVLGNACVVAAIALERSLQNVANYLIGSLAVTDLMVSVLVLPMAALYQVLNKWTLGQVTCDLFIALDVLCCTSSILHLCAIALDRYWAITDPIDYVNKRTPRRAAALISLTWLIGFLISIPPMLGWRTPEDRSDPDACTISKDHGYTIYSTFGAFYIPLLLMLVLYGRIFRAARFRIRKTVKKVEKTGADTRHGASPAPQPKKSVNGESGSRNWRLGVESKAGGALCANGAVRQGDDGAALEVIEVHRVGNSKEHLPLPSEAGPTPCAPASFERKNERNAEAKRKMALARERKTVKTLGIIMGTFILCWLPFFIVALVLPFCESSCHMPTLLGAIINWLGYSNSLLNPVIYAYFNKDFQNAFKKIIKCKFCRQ
In words: Radioreceptor binding, recombinant human 5-HT1A receptors ([3H]8-OH-DPAT, HeLa membranes). Particulars: recombinant human receptor, [3H]8-OH-DPAT; Ki from IC50 by Cheng & Prusoff; read-out: Binding affinity for the 5-HT1A receptor, Ki. As for the experimental part:
Genomic clone G-21 coding for the human 5-HT1A serotonergic receptor is stably transfected in a human cell line (HeLa). HeLa cells were grown as monolayers in Dulbecco's modified Eagle's medium (DMEM), supplemented with 10% fetal calf serum and gentamicin ([…]), 5% CO2 at 37° C. Cells were detached from the growth flask at 95% confluence by a cell scraper and were lysed in ice-cold 5 mM Tris and 5 mM EDTA buffer (pH 7.4). Homogenates were centrifuged at 40000×g×20 min and pellets were resuspended in a small volume of ice-cold 5 mM Tris and 5 mM EDTA buffer (pH 7.4) and immediately frozen and stored at −70° C. until use. On the day of experiment, cell membranes were resuspended in binding buffer: 50 mM Tris HCl (pH 7.4), 2.5 mM MgCl2, 10 μM pargiline (Fargin et al., Nature 335, 358-360, 1988). Membranes were incubated in a final volume of 1 ml for 30 min at 30° C. with 0.2-1 nM [3H]8-OH-DPAT, in absence or presence of competing drugs; non-specific binding was determined in the presence of 10 μM 5-HT. The incubation was stopped by addition of ice-cold Tris-HCl buffer and rapid filtration through 0.2% polyethyleneimine pretreated Whatman GF/B or Schleicher & Schuell GF52 filters.
The inhibition of specific binding of the radioligands by the tested drugs was analyzed to estimate the IC50 value by using the non-linear curve-fitting program Allfit (De Lean et al., Am. J. Physiol. 235, E97-E102, 1978). The IC50 value was converted to an affinity constant (Ki) by the equation of Cheng & Prusoff (Cheng, Y. C.; Prusoff, W. H. Biochem. Pharmacol. 22, 3099-3108, 1973).
In the case of `COc1cc(NC(C)=O)ccc1N1CCN(CCN(C(=O)C2CCCCC2)c2ccccc2OCC(F)(F)F)CC1` [Example 67], the Ki came out at 4.76 nM.

Turning to `CCNC(=O)c1ccccc1N(CCN1CCN(c2ccccc2OC)CC1)C(=O)C1CCCCC1` [Example 25, 1-[N-(2-ethylaminocarbonylphenyl)-N-cyclohexylcarbonyl-2-aminoethyl]-4-(2-methoxyphenyl)piperazine], the inhibitory constant (Ki) stood at 8.91 nM.

`FC(F)(F)COc1ccccc1NCCN1CCN(c2cccc3[nH]ccc23)CC1` [Example 68]: the inhibitory constant (Ki) came to 9.32 nM.

Turning to `O=[N+]([O-])c1ccccc1NCCN1CCN(Cc2cc(Cl)ccc2Cl)CC1` [Example 14, 1-[N-(2-nitrophenyl)-2-aminoethyl)-4-(2,5-dichlorobenzyl)piperazine], the inhibition constant Ki came to 10.3 nM.

Consider `COc1ccccc1N1CCN(CCN(C(=O)C2(C)CCCCC2)c2ccccc2[N+](=O)[O-])CC1` [Example 39, 1-[N-(2-nitrophenyl)-N-(1-methylcyclohexylcarbonyl)-2-aminoethyl]-4-(2-methoxyphenyl)piperazine], for which the inhibition constant Ki is 2.65 nM.

In the case of `COc1ccccc1[N+]1([O-])CCN(CCN(C(=O)C2CCCCC2)c2ccccc2[N+](=O)[O-])CC1` [Example 30, 1-[N-(2-nitrophenyl)-N-cyclohexylcarbonyl-2-aminoethyl]-4-(2-methoxyphenyl)piperazine N^4-oxide], the inhibition constant Ki was determined as 7.96 nM.

As to `COc1cc([N+](=O)[O-])ccc1N1CCN(CCN(C(=O)C2CCCCC2)c2ccccc2OCC(F)(F)F)CC1` [Example 65], the Ki amounted to 18.6 nM.

On to `COc1cc(NC(C)=O)ccc1N1CCN(CCN(C(=O)C2CCCCC2)c2ccccc2[N+](=O)[O-])CC1` [Example 70], for which the Ki stood at 28.1 nM.

With `CS(=O)(=O)Nc1ccccc1N(CCN1CCN(c2cccc3[nH]ccc23)CC1)C(=O)C1CCCCC1` [Example 88, 1-[N-cyclohexylcarbonyl-N-(2-methanesulphonylaminophenyl)-2-aminoethyl]-4-(4-indolyl)piperazine], the inhibition constant (Ki) was determined as 1.03 nM.

With `COc1ccccc1N1CCN(CCN(C(=O)c2ccoc2)c2ccccc2[N+](=O)[O-])CC1` [Example 32, 1-[N-(2-nitrophenyl)-N-(3-furylcarbonyl)-2-aminoethyl]-4-(2-methoxyphenyl)piperazine], the Ki is 19.4 nM.

For `COc1ccccc1N1CCN(CCN(C(=O)c2cnccn2)c2ccccc2[N+](=O)[O-])CC1` [Example 38, 1-[N-(2-nitrophenyl)-N-(2-pyrazinylcarbonyl)-2-aminoethyl]-4-(2-methoxyphenyl)piperazine], the Ki was 1.02 nM.

For the molecule `COc1ccccc1N1CCN(CCNc2ccccc2OC(F)(F)F)CC1` [Example 3, 1-[N-(2-trifluoromethoxyphenyl)-2-aminoethyl]-4-(2-methoxyphenyl)piperazine], the Ki amounted to 10.3 nM.

`COc1ccccc1N1CCN(CCN(C(=O)C2CCCCC2)c2ccccc2C(F)(F)F)CC1` [Example 26, 1-[N-(2-trifluoromethylphenyl)-N-cyclohexylcarbonyl-2-aminoethyl]-4-(2-methoxyphenyl)piperazine.]: the Ki was determined as 2.69 nM.

In the case of `COc1ccccc1N1CCN(CCN(C(=O)C2CCCCC2)c2ccccc2NS(C)(=O)=O)CC1` [Example 46, 1-[N-cyclohexylcarbonyl-N-(2-methanesulphonylaminophenyl)-2-aminoethyl]-4-(2-methoxyphenyl)piperazine], the inhibitory constant (Ki) is 6.05 nM.

Take `COc1ccccc1N1CCN(CCN(C(=O)C2CCCCC2)c2ccccc2NC(C)=O)CC1` [Example 28, 1-[N-(2-acetylaminophenyl)-N-cyclohexylcarbonyl-2-aminoethyl]-4-(2-methoxyphenyl)piperazine]: the inhibitory constant (Ki) turned out to be 18.8 nM.

For `COc1ccccc1N1CCN(CCN(C(=O)C2CCCCC2)c2ccccc2C(=O)N(C)C)CC1` [Example 21, 1-[N-(2-dimethylaminocarbonylphenyl)-N-cyclohexylcarbonyl-2-aminoethyl]-4-(2-methoxyphenyl)piperazine.], the inhibition constant (Ki) came to 2.72 nM.

As to `COc1ccccc1N1CCN(C(C)CN(C(=O)C2CCCCC2)c2ccccc2[N+](=O)[O-])CC1` (stereo not drawn) [Example 45, 1-[N-(2-nitrophenyl)-N-cyclohexylcarbonyl-1-amino-2-propyl]-4-(2methoxyphenyl)piperazine], the inhibition constant Ki came out at 2.21 nM.

For `COc1ccccc1N1CCN(CCN(C(=O)c2ccsc2)c2ccccc2[N+](=O)[O-])CC1` [Example 35, 1-[N-(2-nitrophenyl)-N-(3-thiophenecarbonyl)-2-aminoethyl]-4-(2-methoxyphenyl)piperazine], the Ki is 8 nM.

For `FC(F)(F)Oc1ccccc1NCCN1CCN(c2cccc3[nH]ccc23)CC1` [Example 50, 1-[N-(2-trifluoromethoxyphenyl)-2-aminoethyl]-4-(4-indolyl)piperazine], the inhibitory constant (Ki) was 1.16 nM.

With `COc1ccccc1N1CCN(CCNc2ccccc2Oc2ccccc2)CC1` [Example 5, 1-[N-(2-phenoxyphenyl)-2-aminoethyl]-4-(2-methoxyphenyl)piperazine.3HCl], the Ki worked out at 14.8 nM.

Consider `COc1cc([N+](=O)[O-])ccc1N1CCN(CCN(C(=O)C2CCCCC2)c2ccccc2OC(F)(F)F)CC1` [Example 55, 1-[N-cyclohexylcarbonyl-N-(2-trifluoromethoxyphenyl)-2-aminoethyl]-^4-(2-methoxy-4-nitrophenyl)piperazine], for which the inhibitory constant (Ki) came to 10.8 nM.

Take `O=C(C1CCCCC1)N(CCN1CCN(c2cccc3[nH]ccc23)CC1)c1ccccc1I` [Example 76, 1-[N-cyclohexylcarbonyl-N-(2-iodophenyl)-2-aminoethyl]-4-(4-indolyl)piperazine]: the Ki is 0.69 nM.

As for `COc1ccccc1N1CCN(CCNc2ccccc2C(F)(F)F)CC1` [Example 22, 1-[N-(2-trifluoromethylphenyl)-2-aminoethyl]-4-(2-methoxyphenyl)piperazine], the Ki was found to be 18.2 nM.

In the case of `O=C(C1CCCCC1)N(CCN1CCN(c2cccc3c2ccn3C(=O)C2CCCCC2)CC1)c1ccccc1OC(F)(F)F` [Example 84, 1-[N-cyclohexylcarbonyl-N-(2-trifluoromethoxyphenyl)-2-aminoethyl]-4-(1-cyclohexylcarbonyl-4-indolyl)piperazine], the Ki came out at 23.2 nM.

As to `O=C(c1cnccn1)N(CCN1CCN(c2cccc3[nH]ccc23)CC1)c1ccccc1[N+](=O)[O-]` [Example 53], the Ki is 11.7 nM.

Regarding `COc1ccc(Br)c(CN2CCN(CCNc3ccccc3OC(F)(F)F)CC2)c1` [Example 74, 1-[N-(2-trifluoromethoxyphenyl)-2-aminoethyl]-4-(2-bromo-5-methoxybenzyl)piperazine], the inhibition constant (Ki) was 2.02 nM.

For the molecule `COc1ccccc1N1CCN(CCN(C(=O)c2cccs2)c2ccccc2[N+](=O)[O-])CC1` [Example 34, 1-[N-(2-nitrophenyl)-N-(2-thiophenecarbonyl)-2-aminoethyl]-4-(2-methoxyphenyl)piperazine], the Ki turned out to be 16.3 nM.

As for `COc1ccccc1N1CCN(CCN(C(=O)C2CCCCC2)c2ccccc2OC(F)(F)F)CC1` [Example 4, 1-[N-(2-trifluoromethoxyphenyl)-N-cyclohexylcarbonyl-2-aminoethyl]-4-(2-methoxyphenyl)piperazine], the inhibition constant (Ki) is 0.64 nM.

Turning to `COc1ccccc1N1CCN(CCN(C(=O)C2CCCCC2)c2ccccc2Oc2ccccc2)CC1` [Example 6, 1-[N-(2-phenoxyphenyl)-N-cyclohexylcarbonyl-2-aminoethyl]-4-(2-methoxyphenyl)piperazine], the inhibition constant Ki was determined as 0.45 nM.

For the molecule `COc1ccccc1N1CCN(CCN(C(=O)c2cncs2)c2ccccc2[N+](=O)[O-])CC1` [Example 73], the Ki worked out at 21.2 nM.

As to `FC(F)(F)Oc1ccccc1NCCN1CCN(c2ccccc2OC(F)(F)F)CC1` [Example 71, 1-[N-(2-trifluoromethoxyphenyl)-2-aminoethyl]-4-(2-trifluoromethoxyphenyl)piperazine], the Ki stood at 15.5 nM.

Regarding `N#Cc1ccccc1N(CCN1CCN(c2ccccc2OC(F)(F)F)CC1)C(=O)C1CCCCC1` [Example 77, 1-[N-(2-cyanophenyl)-N-cyclohexylcarbonyl-2-aminoethyl]-4-(2-trifluoromethoxyphenyl)piperazine], the Ki was determined as 0.58 nM.

For the molecule `COC(=O)c1ccccc1NCCN1CCN(c2ccccc2OC)CC1` [Example 17, 1-[N-(2-methoxycarbonylphenyl)-2-aminoethyl]-4-(2-methoxyphenyl)piperazine], the Ki came to 20.2 nM.
